Laboratory results as given in ChEMBL document CHEMBL3621091, “Optimisation of a triazolopyridine based histone demethylase inhibitor yields a potent and selective KDM2A (FBXL11) inhibitor” (Medchemcomm, 2014).

Tests used:
Assay type in all cases: physicochemical
Settings in all cases: read-out: Peff
[1] = Membrane permeability of the compound at pH 7.4 by PAMPA
[2] = Membrane permeability of the compound at pH 5 by PAMPA
[3] = Membrane permeability of the compound at pH 6.2 by PAMPA

Papp [1] | Papp [2] | Papp [3] | Structure (SMILES)
0.69 ×10⁻⁶ cm/s | 1.9 ×10⁻⁶ cm/s | 0.41 ×10⁻⁶ cm/s | O=C(O)c1ccnc(-c2cn([C@@H]3CCCN(C(=O)c4ccccc4)C3)nn2)c1
52 ×10⁻⁶ cm/s | 56 ×10⁻⁶ cm/s | 45 ×10⁻⁶ cm/s | COC(=O)c1ccnc(-c2cn([C@@H]3CCCN(C(=O)c4ccccc4)C3)nn2)c1
